{
  "source": "paper PMC10817945",
  "about": "“Design of a novel analogue peptide with potent antibiofilm activities against Staphylococcus aureus based upon a sapecin B-derived peptide” (Scientific Reports, 2024)",
  "assay_type_in_all_cases": "cell-based, Staphylococcus aureus",
  "key": {"24-h S. aureus biofilms": {"test_system": "24-h S. aureus biofilms", "experiment": "Biofilm dispersal activity (crystal violet)", "procedure": "To investigate the dispersal activity of KLK and mKLK peptide, the 24-h S. aureus biofilms were prepared in TSB medium in the 96-well plates. Then, the final concentrations of 1×, 2×, and 4 × MIC were prepared for each peptide in the wells. After incubation at 37 °C for 12 h, plates were washed with PBS three times to discard unattached bacteria. Subsequently, plates were stained with 250 μl of 0.5% crystal violet for 20 min at room temperature. Then, the wells were washed and 250 μl 33% acetic acid was added to them. Finally, the absorbance was measured at 570 nm using a microplate reader."}, "S. aureus isolates": {"test_system": "S. aureus isolates", "experiment": "microbe, parasite or virus in culture", "procedure": "Minimum inhibitory concentrations (MIC) of KLK, mKLK, and vancomycin were determined using microdilution broth assay according to clinical and laboratory standards institute (CLSI) guidelines with some modifications. Briefly, overnight cultures were diluted in Muller-Hinton broth (MHB; Merck, Germany) to achieve a final density of 5 × 10^5 CFU/ml. A volume of 100 μl of bacterial suspension was added to wells of sterile 96-well plates containing 100 μl of two-fold peptide dilutions, ranging from 0.25 to 256 µg/ml. Vancomycin was used as a positive control in this assay. […] MBC was determined by removing samples from wells with no visible growth, serially diluting, and plating on Mueller Hinton (MH) agar plates for CFU counting."}, "S. aureus strains": {"test_system": "S. aureus strains", "procedure": "To investigate the inhibitory effect of KLK and mKLK peptides on bacterial surface attachment and biofilm formation, the bacterial suspension in TSB with a concentration of 10^7 CFU/ml was prepared from overnight culture. An aliquot of 100 μl of the bacterial suspension was added to wells of 96-well plates containing 100 μl of the peptides solution with concentrations of 1×, 1/2× and 1/4× MIC, resulting in the final peptides concentrations of 1/2×, 1/4× and 1/8× MIC. To investigate the inhibitory effect of the peptides on surface attachment the incubation was performed at 37 °C for 2 h and to evaluate their inhibitory activity on biofilm formation the incubation was performed at 37 °C for 24 h. The wells containing only TSB medium were used as negative controls. After incubation, the contents of the wells were removed and washed three times with PBS and the wells were stained with 200 μl of 0.1% crystal violet for 20 min. The plates were washed again and excess dye was removed. A volume of 200 μl of 95% ethanol was added to each well for 20 min and absorbance was measured at 570 nm by a microplate reader."}},
  "note": "Like-named read-outs stand apart in the source and are kept apart here. Non-standard residues stand in square brackets, D forms with d. Residues, ends and D or L forms follow the SMILES beside them.",
  "data": [
    {"smiles": "CC(C)C[C@@H](NC(=O)[C@H](N)Cc1c[nH]c2ccccc12)C(=O)N[C@H](Cc1c[nH]c2ccccc12)C(=O)N[C@H](C)C(=O)N[C@H](CC(C)C)C(=O)N[C@H](CC(C)C)C(=O)N[C@H](CCCCN)C(=O)N[C@H](CC(C)C)C(=O)N[C@H](CC(C)C)C(=O)N[C@H](CCCCN)C(=O)N[C@H](CC(C)C)C(=O)N[C@H](CCCCN)C(N)=O", "note": "[mKLK] (H-[dW][dL][dW][dA][dL][dL][dK][dL][dL][dK][dL][dK]-NH2; N-terminus assumed)", "values": [
      {"measurement": "crystal violet absorbance at 570 nm, dispersal activity, Mean±SD", "setting": "24-h S. aureus biofilms; ATCC25923, 1MIC, control 2.79±0.03", "value": "1.277±0.01"},
      {"measurement": "crystal violet absorbance at 570 nm, dispersal activity, Mean±SD", "setting": "24-h S. aureus biofilms; ATCC25923, 2MIC, control 2.79±0.03", "value": "0.790±0.15"},
      {"measurement": "crystal violet absorbance at 570 nm, dispersal activity, Mean±SD", "setting": "24-h S. aureus biofilms; ATCC25923, 4MIC, control 2.79±0.03", "value": "0.35±0.01"},
      {"measurement": "crystal violet absorbance at 570 nm, dispersal activity, Mean±SD", "setting": "24-h S. aureus biofilms; MRSA-1, 1MIC, control 1.903±0.003", "value": "1.271±0.02"},
      {"measurement": "crystal violet absorbance at 570 nm, dispersal activity, Mean±SD", "setting": "24-h S. aureus biofilms; MRSA-1, 2MIC, control 1.903±0.003", "value": "0.926±0.07"},
      {"measurement": "crystal violet absorbance at 570 nm, dispersal activity, Mean±SD", "setting": "24-h S. aureus biofilms; MRSA-1, 4MIC, control 1.903±0.003", "value": "0.587±0.28"},
      {"measurement": "crystal violet absorbance at 570 nm, dispersal activity, Mean±SD", "setting": "24-h S. aureus biofilms; MRSA-2, 1MIC, control 2.014±0.01", "value": "1.349±0.04"},
      {"measurement": "crystal violet absorbance at 570 nm, dispersal activity, Mean±SD", "setting": "24-h S. aureus biofilms; MRSA-2, 2MIC, control 2.014±0.01", "value": "0.929±0.09"},
      {"measurement": "crystal violet absorbance at 570 nm, dispersal activity, Mean±SD", "setting": "24-h S. aureus biofilms; MRSA-2, 4MIC, control 2.014±0.01", "value": "0.579±0.08"},
      {"measurement": "crystal violet absorbance at 570 nm, dispersal activity, Mean±SD", "setting": "24-h S. aureus biofilms; MRSA-3, 1MIC, control 1.255±0.29", "value": "0.637±0.16"},
      {"measurement": "crystal violet absorbance at 570 nm, dispersal activity, Mean±SD", "setting": "24-h S. aureus biofilms; MRSA-3, 2MIC, control 1.255±0.29", "value": "0.5±0.11"},
      {"measurement": "crystal violet absorbance at 570 nm, dispersal activity, Mean±SD", "setting": "24-h S. aureus biofilms; MRSA-3, 4MIC, control 1.255±0.29", "value": "0.296±0.009"},
      {"measurement": "crystal violet absorbance at 570 nm, dispersal activity, Mean±SD", "setting": "24-h S. aureus biofilms; MSSA-1, 1MIC, control 1.787±0.1", "value": "1.063±0.09"},
      {"measurement": "crystal violet absorbance at 570 nm, dispersal activity, Mean±SD", "setting": "24-h S. aureus biofilms; MSSA-1, 2MIC, control 1.787±0.1", "value": "0.675±0.02"},
      {"measurement": "crystal violet absorbance at 570 nm, dispersal activity, Mean±SD", "setting": "24-h S. aureus biofilms; MSSA-1, 4MIC, control 1.787±0.1", "value": "0.378±0.02"},
      {"measurement": "crystal violet absorbance at 570 nm, dispersal activity, Mean±SD", "setting": "24-h S. aureus biofilms; MSSA-2, 1MIC, control 2.116±0.006", "value": "0.992±0.01"},
      {"measurement": "crystal violet absorbance at 570 nm, dispersal activity, Mean±SD", "setting": "24-h S. aureus biofilms; MSSA-2, 2MIC, control 2.116±0.006", "value": "0.637±0.20"},
      {"measurement": "crystal violet absorbance at 570 nm, dispersal activity, Mean±SD", "setting": "24-h S. aureus biofilms; MSSA-2, 4MIC, control 2.116±0.006", "value": "0.207±0.01"},
      {"measurement": "MIC", "setting": "S. aureus isolates; ATCC25923", "value": 4, "unit": "µg/mL"},
      {"measurement": "MIC", "setting": "S. aureus isolates; MRSA clinical isolates, read-out: MIC", "value": 8, "unit": "µg/mL"},
      {"measurement": "MIC", "setting": "S. aureus isolates; MRSA-1", "value": 8, "unit": "µg/mL"},
      {"measurement": "MIC", "setting": "S. aureus isolates; MRSA-2", "value": 8, "unit": "µg/mL"},
      {"measurement": "MIC", "setting": "S. aureus isolates; MRSA-3", "value": 8, "unit": "µg/mL"},
      {"measurement": "MIC", "setting": "S. aureus isolates; MSSA-1", "value": 4, "unit": "µg/mL"},
      {"measurement": "MIC", "setting": "S. aureus isolates; MSSA-2", "value": 4, "unit": "µg/mL"},
      {"measurement": "MIC", "setting": "S. aureus isolates; three MRSA isolates", "value": 8, "unit": "µg/mL"},
      {"measurement": "MIC", "setting": "S. aureus isolates; two MSSA isolates", "value": 4, "unit": "µg/mL"},
      {"measurement": "crystal violet absorbance at 570 nm, biofilm formation, Mean±SD", "setting": "S. aureus strains; ATCC25923, 1/2MIC, control 2.302±0.006", "value": "0.207±0.02"},
      {"measurement": "crystal violet absorbance at 570 nm, biofilm formation, Mean±SD", "setting": "S. aureus strains; ATCC25923, 1/4MIC, control 2.302±0.006", "value": "0.257±0.05"},
      {"measurement": "crystal violet absorbance at 570 nm, biofilm formation, Mean±SD", "setting": "S. aureus strains; ATCC25923, 1/8MIC, control 2.302±0.006", "value": "0.678±0.01"},
      {"measurement": "crystal violet absorbance at 570 nm, biofilm formation, Mean±SD", "setting": "S. aureus strains; MRSA-1, 1/2MIC, control 2.115±0.01", "value": "0.489±0.007"},
      {"measurement": "crystal violet absorbance at 570 nm, biofilm formation, Mean±SD", "setting": "S. aureus strains; MRSA-1, 1/4MIC, control 2.115±0.01", "value": "0.572±0.01"},
      {"measurement": "crystal violet absorbance at 570 nm, biofilm formation, Mean±SD", "setting": "S. aureus strains; MRSA-1, 1/8MIC, control 2.115±0.01", "value": "0.936±0.07"},
      {"measurement": "crystal violet absorbance at 570 nm, biofilm formation, Mean±SD", "setting": "S. aureus strains; MRSA-2, 1/2MIC, control 2.354±0.04", "value": "0.444±0.008"},
      {"measurement": "crystal violet absorbance at 570 nm, biofilm formation, Mean±SD", "setting": "S. aureus strains; MRSA-2, 1/4MIC, control 2.354±0.04", "value": "0.624±0.03"},
      {"measurement": "crystal violet absorbance at 570 nm, biofilm formation, Mean±SD", "setting": "S. aureus strains; MRSA-2, 1/8MIC, control 2.354±0.04", "value": "0.923±0.07"},
      {"measurement": "crystal violet absorbance at 570 nm, biofilm formation, Mean±SD", "setting": "S. aureus strains; MRSA-3, 1/2MIC, control 1.541±0.02", "value": "1.405±0.01"},
      {"measurement": "crystal violet absorbance at 570 nm, biofilm formation, Mean±SD", "setting": "S. aureus strains; MRSA-3, 1/4MIC, control 1.541±0.02", "value": "0.322±0.02"},
      {"measurement": "crystal violet absorbance at 570 nm, biofilm formation, Mean±SD", "setting": "S. aureus strains; MRSA-3, 1/8MIC, control 1.541±0.02", "value": "0.519±0.006"},
      {"measurement": "crystal violet absorbance at 570 nm, biofilm formation, Mean±SD", "setting": "S. aureus strains; MSSA-1, 1/2MIC, control 2.190±0.01", "value": "0.236±0.03"},
      {"measurement": "crystal violet absorbance at 570 nm, biofilm formation, Mean±SD", "setting": "S. aureus strains; MSSA-1, 1/4MIC, control 2.190±0.01", "value": "0.407±0.007"}
    ]}
  ]
}
